Where “and” joins values, the source holds several entries; their conditions need not be identical. Equal values may be shown once. Read-outs that look alike come from different tables or passages of the source. Blank lines part the entries; values can stand above or below the molecule they belong to.
Key:
[1] = test system: PG binding sites on human hypernephroma cells; assay: Time course of specific 3H-PG binding (association, dissociation); settings: 3H-iloprost, 3H-PGE1 each 84 nM, 3H-PGE2 45 nM; stable for at least 80 min
[2] = biological target: T1, PGI2-binding sites (3H-iloprost receptors) on human hypernephroma cells (Homo sapiens, UniProt P43119); assay: Saturation binding of 3H-iloprost to cultured hypernephroma cells (Scatchard analysis); settings: for Bmax, 3H-iloprost binding, Table I: individual cell lines; for Bmax (binding capacity), 3H-iloprost binding: mean of cell lines
T1 construct: endogenous in cells; host or cells: primary cultures of human renal cell carcinoma (hypernephroma) cells, one line per patient
T1 sequence (P43119 whole entry): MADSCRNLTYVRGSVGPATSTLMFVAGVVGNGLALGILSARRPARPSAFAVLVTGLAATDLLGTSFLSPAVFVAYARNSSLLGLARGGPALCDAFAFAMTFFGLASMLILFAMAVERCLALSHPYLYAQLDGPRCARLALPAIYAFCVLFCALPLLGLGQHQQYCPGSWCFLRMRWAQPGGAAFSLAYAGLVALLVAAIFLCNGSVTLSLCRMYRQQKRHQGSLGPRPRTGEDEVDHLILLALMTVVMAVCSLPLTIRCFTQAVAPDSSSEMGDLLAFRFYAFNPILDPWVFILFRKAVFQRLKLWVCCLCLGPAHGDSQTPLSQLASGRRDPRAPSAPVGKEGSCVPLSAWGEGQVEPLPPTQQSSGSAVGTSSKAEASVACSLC

[3] = test system: PG biosynthesis of human hypernephroma cells; assay: Conversion of exogenously added 14C-AA to its metabolites (radiothinlayer chromatography); assay type: cell-based; settings: for 14C-AA conversion to 12-HETE, Table IV / 14C-AA conversion to PGD2, Table IV / 14C-AA conversion to PGE2, Table IV / 14C-AA conversion to PGF2alpha, Table IV / 14C-AA conversion to TXB2, Table IV / AA (%) remaining, Table IV: individual cell lines
[4] = test system: human hypernephroma cells; assay: Cellular viability (phase-contrast microscopy and Trypan Blue exclusion); assay type: cell-based; settings: ASA incubation for 24 h
[5] = test system: PGE2-binding sites (3H-PGE2-receptors) on human hypernephroma cells; assay: Saturation binding of 3H-PGE2 to cultured hypernephroma cells (Scatchard analysis); settings: for Bmax, 3H-PGE2 binding, Table III: individual cell lines; for Bmax (binding capacity), 3H-PGE2 binding / Kd: mean of cell lines; for Kd: read-out: Kd (dissociation constant), 3H-PGE2 binding
[6] = test system: PGE1-binding sites (3H-PGE1-receptors) on human hypernephroma cells; assay: Saturation binding of 3H-PGE1 to cultured hypernephroma cells (Scatchard analysis); settings: for Bmax, 3H-PGE1 binding, Table II: individual cell lines; for Bmax (binding capacity), 3H-PGE1 binding / Kd: mean of cell lines; for Kd: read-out: Kd (dissociation constant), 3H-PGE1 binding
[7] = ASA-treated group (group 2), ASA 0.5 mg 10-6 cells for 24 h
[8] = ASA-treated group irradiated (group 4)
[9] = control group (group 1), no ASA, no irradiation
[10] = control group irradiated (group 3), 60Co 1.0 Gy min-1 over 10 min, assay about 2 h after
[11] = ASA-treated group (group 2), patients 1,3,4,6,8,9,11 in order
[12] = ASA-treated group irradiated (group 4), patients 3,4,6,9,11 in order
[13] = ASA-treated group irradiated (group 4), listed as 3H-PGE1
[14] = control group (group 1), no ASA, no irradiation, listed as 3H-PGE1

Bmax (binding capacity), 3H-iloprost binding [2, 7]: 1021 fmol mg-1 protein
Bmax (binding capacity), 3H-iloprost binding [2, 8]: 766 +/- 452 fmol mg-1 protein
Bmax (binding capacity), 3H-iloprost binding ([2]; ASA-treated group irradiated (group 4), listed as 3H-iloprost): 766 fmol mg-1 protein
Bmax (binding capacity), 3H-iloprost binding [2, 9]: 693 fmol mg-1 protein
Bmax (binding capacity), 3H-iloprost binding [2, 10]: 325 fmol mg-1 protein
Structure (SMILES): CC#CCC(C)[C@H](O)/C=C/[C@@H]1[C@H]2C/C(=C/CCCC(=O)O)C[C@H]2C[C@H]1O (stereo partly shown) [iloprost]
time to reach binding equilibrium [1]: ≤ 20 min
Bmax, 3H-iloprost binding, Table I ([2]; ASA (group 2), patients 1,2,3,4,5,6,7,8,9,10,11 in order, listed as 3H-iloprost): 813 fmol mg-1 protein and 855 fmol mg-1 protein and 987 fmol mg-1 protein and 960 fmol mg-1 protein and 916 fmol mg-1 protein and 1047 fmol mg-1 protein and 2024 fmol mg-1 protein and 1301 fmol mg-1 protein and 442 fmol mg-1 protein and 1023 fmol mg-1 protein and 861 fmol mg-1 protein
Bmax, 3H-iloprost binding, Table I ([2]; control (group 1), patients 1,2,3,4,5,6,7,8,9,10,11 in order, listed as 3H-iloprost): 741 fmol mg-1 protein and 635 fmol mg-1 protein and 876 fmol mg-1 protein and 732 fmol mg-1 protein and 808 fmol mg-1 protein and 806 fmol mg-1 protein and 649 fmol mg-1 protein and 407 fmol mg-1 protein and 382 fmol mg-1 protein and 829 fmol mg-1 protein and 756 fmol mg-1 protein
Bmax, 3H-iloprost binding, Table I ([2]; irradiation, ASA (group 4), patients 3,4,6,7,9,10,11 in order, listed as 3H-iloprost): 489 fmol mg-1 protein and 354 fmol mg-1 protein and 867 fmol mg-1 protein and 1551 fmol mg-1 protein and 364 fmol mg-1 protein and 1162 fmol mg-1 protein and 576 fmol mg-1 protein
Bmax, 3H-iloprost binding, Table I ([2]; irradiation, control (group 3), patients 3,4,6,7,9,10,11 in order, listed as 3H-iloprost): 332 fmol mg-1 protein and 287 fmol mg-1 protein and 432 fmol mg-1 protein and 699 fmol mg-1 protein and 204 fmol mg-1 protein and 203 fmol mg-1 protein and 118 fmol mg-1 protein

Bmax (binding capacity), 3H-iloprost binding [2, 9]: 693 +/- 164 fmol mg-1 protein
Bmax (binding capacity), 3H-iloprost binding [2, 10]: 325 +/- 194 fmol mg-1 protein
Structure (SMILES): CCCCC[C@H](O)/C=C/[C@@H]1[C@H]2C/C(=C/CCCC(=O)O)O[C@H]2C[C@H]1O [PGI2]

Structure (SMILES): CC(=O)Oc1ccccc1C(=O)O [ASA, acetylsalicylic acid]
14C-AA conversion to 12-HETE, Table IV [3, 11]: 6.9% and 4.2% and 7.3% and 5.5% and 5.3% and 4.9% and 8.8%
14C-AA conversion to PGD2, Table IV [3, 11]: 1.3% and 0.9% and 0.2% and 0.5% and 0.4% and 0.6% and 0.8%
14C-AA conversion to PGE2, Table IV [3, 11]: 1.8% (2×) and 1.1% and 2.2% and 0.7% and 1.5% and 1.3%
14C-AA conversion to PGF2alpha, Table IV [3, 11]: 1.7% and 0.7% and 0.8% and 0.2% and 0.3% (2×) and 0.5%
14C-AA conversion to TXB2, Table IV [3, 11]: 1.2% and 0.8% and 1.7% and 1.3% (2×) and 2.3% and 1.5%
AA (%) remaining, Table IV [3, 11]: 66.5% and 78.2% and 72.9% and 78.5% (2×) and 82.8% and 81.0%
14C-AA conversion to PGF2alpha ([3]; ASA-treated group (group 2), mean (control group […])): 0.6%
14C-AA conversion to 12-HETE ([3]; ASA-treated group (group 2), mean (control group 3.7)): 6.1%
14C-AA conversion to TXB2 ([3]; ASA-treated group (group 2), mean (control group 8.0)): 1.4%
14C-AA conversion to 12-HETE, Table IV [3, 12]: 4.9% and 5.1% (2×) and 4.8% (2×)
14C-AA conversion to PGD2, Table IV [3, 12]: 0.3% and 0.9% and 0.8% and 0.5% and 0.4%
14C-AA conversion to PGE2, Table IV [3, 12]: 0.8% and 1.6% and 1.9% and 1.1% and 1.8%
14C-AA conversion to PGF2alpha, Table IV [3, 12]: 0.5% and 0.9% and 0.2% and 0.8% and 0.4%
14C-AA conversion to TXB2, Table IV [3, 12]: 1.3% and 1.2% and 1.1% and 1.5% and 0.6%
AA (%) remaining, Table IV [3, 12]: 82.9% and 74.3% and 81.2% and 73.7% and 79.4%
14C-AA conversion to PGF2alpha ([3]; ASA-treated group irradiated (group 4), mean (control irradiated 2.7)): 0.6%
14C-AA conversion to PGD2 ([3]; ASA-treated group irradiated (group 4), mean (control irradiated 3.0)): 0.6%
14C-AA conversion to 12-HETE ([3]; ASA-treated group irradiated (group 4), mean (control irradiated 4.1)): 4.9%
14C-AA conversion to TXB2 ([3]; ASA-treated group irradiated (group 4), mean (control irradiated 7.4)): 1.1%
14C-AA conversion to PGE2 ([3]; ASA-treated group irradiated (group 4), mean (control irradiated 9.0)): 1.4%
cellular viability [4]: unchanged

Structure (SMILES): CCCCC[C@H](O)/C=C/[C@H]1[C@H](O)CC(=O)[C@@H]1C/C=C\CCCC(=O)O [PGE2]
Bmax, 3H-PGE2 binding, Table III ([5]; ASA (group 2), patients 1,3,4,5,6,8,9,10,11 in order, listed as 3H-PGE2): 650 fmol mg-1 protein and 162 fmol mg-1 protein and 858 fmol mg-1 protein and 780 fmol mg-1 protein and 1104 fmol mg-1 protein and 986 fmol mg-1 protein and 666 fmol mg-1 protein and 324 fmol mg-1 protein and 441 fmol mg-1 protein
Bmax (binding capacity), 3H-PGE2 binding [5, 7]: 663 +/- 309 fmol mg-1 protein
Bmax (binding capacity), 3H-PGE2 binding ([5]; ASA-treated group (group 2), ASA 0.5 mg 10-6 cells for 24 h, listed as 3H-PGE2): 663 fmol mg-1 protein
Kd [5, 7]: 2.2 ± 1.5 nM
Bmax (binding capacity), 3H-PGE2 binding [5, 8]: 287 fmol mg-1 protein
Kd [5, 8]: 3.5 nM
Bmax, 3H-PGE2 binding, Table III ([5]; control (group 1), patients 1,3,4,5,6,8,9,10,11 in order, listed as 3H-PGE2): 563 fmol mg-1 protein and 143 fmol mg-1 protein and 478 fmol mg-1 protein and 650 fmol mg-1 protein and 930 fmol mg-1 protein and 438 fmol mg-1 protein and 534 fmol mg-1 protein and 313 fmol mg-1 protein and 398 fmol mg-1 protein
Bmax (binding capacity), 3H-PGE2 binding [5, 9]: 494 +/- 221 fmol mg-1 protein
Bmax (binding capacity), 3H-PGE2 binding ([5]; control group (group 1), no ASA, no irradiation, listed as 3H-PGE2): 494 fmol mg-1 protein
Kd [5, 9]: 4.2 ± 2.5 nM
Bmax (binding capacity), 3H-PGE2 binding [5, 10]: 148 +/- 66 fmol mg-1 protein
Bmax (binding capacity), 3H-PGE2 binding ([5]; control group irradiated (group 3), 60Co 1.0 Gy min-1 over 10 min, assay about 2 h after, listed as 3H-PGE2): 148 fmol mg-1 protein
Kd [5, 10]: 4.7 ± 3.6 nM
Bmax, 3H-PGE2 binding, Table III ([5]; irradiation, ASA (group 4), patients 3,6,8,9,10,11 in order, listed as 3H-PGE2): 181 fmol mg-1 protein and 336 fmol mg-1 protein and 338 fmol mg-1 protein and 466 fmol mg-1 protein and 232 fmol mg-1 protein and 170 fmol mg-1 protein
Bmax, 3H-PGE2 binding, Table III ([5]; irradiation, control (group 3), patients 3,6,8,9,10,11 in order, listed as 3H-PGE2): 63 fmol mg-1 protein and 209 fmol mg-1 protein and 218 fmol mg-1 protein and 112 fmol mg-1 protein and 96 fmol mg-1 protein and 189 fmol mg-1 protein
time to reach binding equilibrium [1]: ≤ 30 min

Structure (SMILES): CCCCC[C@H](O)/C=C/[C@H]1[C@H](O)CC(=O)[C@@H]1CCCCCCC(=O)O [PGE1]
time to reach binding equilibrium [1]: ≤ 20 min
Bmax, 3H-PGE1 binding, Table II ([6]; ASA (group 2), patients 1,3,4,5,6,7,8,9,10,11 in order, listed as 3H-PGE1): 811 fmol mg-1 protein and 923 fmol mg-1 protein and 1076 fmol mg-1 protein and 1019 fmol mg-1 protein and 1367 fmol mg-1 protein and 897 fmol mg-1 protein and 1773 fmol mg-1 protein and 736 fmol mg-1 protein and 1064 fmol mg-1 protein and 1171 fmol mg-1 protein
Bmax (binding capacity), 3H-PGE1 binding [6, 7]: 1084 +/- 303 fmol mg-1 protein
Bmax (binding capacity), 3H-PGE1 binding ([6]; ASA-treated group (group 2), ASA 0.5 mg 10-6 cells for 24 h, listed as 3H-PGE1): 1084 fmol mg-1 protein
Kd [6, 7]: 2.8 ± 1.3 nM
Bmax (binding capacity), 3H-PGE1 binding [6, 8]: 699 +/- 240 fmol mg-1 protein
Bmax (binding capacity), 3H-PGE1 binding [6, 13]: 699 fmol mg-1 protein
Kd [6, 13]: 3 nM
Bmax, 3H-PGE1 binding, Table II ([6]; control (group 1), patients 1,3,4,5,6,7,8,9,10,11 in order, listed as 3H-PGE1): 781 fmol mg-1 protein and 372 fmol mg-1 protein and 978 fmol mg-1 protein and 911 fmol mg-1 protein and 694 fmol mg-1 protein and 893 fmol mg-1 protein and 1041 fmol mg-1 protein and 643 fmol mg-1 protein and 555 fmol mg-1 protein and 685 fmol mg-1 protein
Bmax (binding capacity), 3H-PGE1 binding [6, 9]: 755 +/- 206 fmol mg-1 protein
Bmax (binding capacity), 3H-PGE1 binding [6, 14]: 755 fmol mg-1 protein
Kd [6, 14]: ~4 nM
Kd [6, 9]: 3.7 ± 2.7 nM
Bmax (binding capacity), 3H-PGE1 binding [6, 10]: 266 +/- 153 fmol mg-1 protein
Bmax (binding capacity), 3H-PGE1 binding ([6]; control group irradiated (group 3), 60Co 1.0 Gy min-1 over 10 min, assay about 2 h after, listed as 3H-PGE1): 266 fmol mg-1 protein
Kd [6, 10]: 5 ± 5 nM
Bmax, 3H-PGE1 binding, Table II ([6]; irradiation, ASA (group 4), patients 3,6,7,9,10,11 in order, listed as 3H-PGE1): 679 fmol mg-1 protein and 867 fmol mg-1 protein and 615 fmol mg-1 protein and 268 fmol mg-1 protein and 884 fmol mg-1 protein and 879 fmol mg-1 protein
Bmax, 3H-PGE1 binding, Table II ([6]; irradiation, control (group 3), patients 3,6,7,9,10,11 in order, listed as 3H-PGE1): 267 fmol mg-1 protein and 504 fmol mg-1 protein and 301 fmol mg-1 protein and 137 fmol mg-1 protein and 319 fmol mg-1 protein and 68 fmol mg-1 protein

From paper PMC1968618, “Acetylsalicylic acid (ASA) protects the prostaglandin-cAMP-system of human hypernephroma cells against irradiation-induced alterations” (British Journal of Cancer, 1993)
